Test [1] has as its system TF (tissue factor). Kind of test: Inhibitory effects on the TF production in LPS-stimulated human peripheral blood monocytes. In kind it is cell-based. Conditions: Monocyte, LPS 1 μg/ml, 16 hours. On the procedure: Peripheral venous blood was sampled from the healthy person, and submitted to density-gradient centrifugation so that monocytes might be isolated. The monocytes thus obtained were washed with minimum essential medium (MEM, Gibco) and suspended in a culture medium (RPMI-1640(Gibco)+25 mM HEPES buffer+100 μg/ml streptomycin+100 U/ml penicillin G+2 mM L-glutamine) to give a suspension with a density of 1×10^6 cells/ml. A 0.15 ml of the cell suspension was placed onto each of the wells of a 96-well microplate, to which the compound of this invention as described in Tables 4-1 to 4-2 was added (0.05 ml of the culture medium), and the assembly was placed for 1 hour in a CO2 incubator for cultivation. Then, LPS (lipopolysaccarides, E. coli 0111B4, Difco) 1 μg/ml was added thereto, and the assembly was further cultured for 16 hours. After the supernatant being removed, the residue was washed with physiological saline, 0.1 ml of 16 mM OG (n-octyl-β-D-glucopyranoside) was added thereto, and the assembly was stirred to make TF soluble. A 0.2 ml of physiological saline was added to each residue (final dilution was […]) and this preparation was used for determination of the coagulation stimulating activity (TF-like activity). The test compound had been dissolved in DMSO to give a 0.1 M solution which was diluted with the culture medium prior to use. The final concentration of DMSO was 0.01% or less.
To each well of the microplate, 50 μl of human plasma and 50 μl of the test sample prepared as above for determination of the coagulation stimulating activity, or 50 μl of standard thromboplastin (human thromboplastin, Thromborel S, Behringwerke) were added. The microplate was incubated at 37° C. for 5 minutes, to which was added 25 mM CaCl2 (50 μl/well) containing phosphorous lipids (Platelin, Organon Teknica) at a concentration of […] to initiate coagulation. Coagulation was determined on the basis of absorption at 540 nm, and the measurement lasted 7 to 20 minutes. The data were analyzed with a data analyzing software SOFTMax (Molecular Devices) and the maximum rate time was taken as the coagulation time. The logarithmic values of the coagulation times and standard thromboplastin concentrations are plotted, and a regression parabola was drawn among the dots to give a test curve. From the curve, the inhibitory effect (%) of a given test compound on TF production was calculated. (Refer to J. Imnmunol. Methods, 133:21-29, 1990, and Proc. Natl. Acad. Sci. USA, 89:10370-10374, 1992).

The test system of test [2] is IgE. Kind of test: In vivo inhibition of IgE production in TNP-KLH immunized mice. On the set-up: species or system BDF1 mice. As to conditions: 100 mg/kg/day subcutaneously, twice a day for 10 days, N=10. On the procedure:
TNP-KLH (trinitrophenyl-keyhole-lymphet-hemocyanin) was prepared by the method as described in J. Immunol., 97:421-430, 1966 from KLH and trinitrobenzene sulfonic acid. A […] of TNP-KLH suspended in 0.2 ml of saline and 1 mg of aluminum hydroxide gel were injected into the peritoneal cavity of BDF1 mice (8 weeks old) for immunization. From the day of immunization onward, the compound of this invention listed in Table 5 was given subcutaneously to the same animal twice a day for 10 days (100 mg/kg/day, dissolved in 0.5% Tween 80 in saline, and N=10). To the control group, 0.5% Tween 80 in saline was given at the same time schedule (N=10). Ten days after immunization, blood was extracted from the heart, and the concentrations of IgE, IgG1 and IgM antibodies were determined by ELISA (Immunol. Lett., 23:251-256, 1990, and Eur. J. Immunol., 20:2499-2503, 1990). Inhibition (%) of the antibody production with respect to the control was calculated.

Test [3] relates to human IgE antibodies. The test is described as follows: In vitro inhibition of the production of human IgE antibodies (lymphocytes + IL-4 + anti CD40Ab + IL-10, ELISA). Conditions: Lymphocyte, read-out: Inhibition of antibody production (%) IgE. In kind it is cell-based. How it is done:
According to the method described in J. Immunol., 146:1836-1842, 1991 and J. Immunol., 147:8-13, 1991, the concentrations of IgE and IgG antibodies were measured by the procedures described below.
Peripheral venous blood was sampled from the healthy person, and submitted to density-gradient centrifugation to isolate lymphocytes. The lymphocytes thus obtained were washed and suspended in a culture medium (RPMI-1640 (provided by Gibco)+10% heat-inactivated FCS (Whittaker)+100 µg/ml streptomycin+100 U/ml penicillin+2mM L-glutamine). The cell suspensions were cultured for 1 week in the presence/absence of the compounds of this invention at the concentrations as described in Tables 3-1 to 3-2 together with human interleukin 4 (IL-4, Genzyme)([…]), anti CD40 antibodies (anti CD40Ab, Biosource, clone B-B20)([…]) and human interleukin 10 (IL-10, Genzyme)([…]). The culture medium was supplied freshly to the cell suspension, and the mixture was further cultured for another week. The supernatant was sampled and the concentrations of IgE and IgG antibodies therein were measured by sandwich ELISA.
The ELISA was based, for the assay of IgE antibodies, on the use of rabbit anti-human IgE() antibodies (ICN) as the primary antibody and biotin-linked anti-human IgE monoclonal antibodies (G7-26, PharMingen) as the secondary antibody. For the assay of IgG antibodies, anti-human IgG monoclonal antibodies (G18-145, PharMingen) and biotin-linked donkey anti-human IgG antibodies (H+L)(Jackson) were used for the primary and secondary antibodies, respectively. For the assay of both IgE and IgG antibodies, Avidin-Biotin-Horse Radish Peroxidase (ABC kit, Vector Lab) and TMB (3,3',5,5'-tetramethylbenzidine) microwell peroxidase substrate system (Kirkegaard & Perry Laboratories Inc.) were used as the enzyme and the substrate, respectively. The assays were made by the use of conventionally known ELISA.
The inhibitory effect (%) of a given compound of this invention on the production of the antibody was calculated with respect to the concentration of the same antibody when the compound was not coexistent (refer to Uejima et al., American Academy of Allergy and Immunology, Proceedings of 1995 Annual Meeting, Program No. 818).

The record followed here is patent US5945450A, “Naphthalene derivative” (Teijin Limited, priority 1994, dated 1999).

Structures are written as SMILES.

Usually inhibition stands for how much of the control response was suppressed. Take `O=C(Nc1ccccc1C(=O)O)c1ccc(Oc2ccc3ccccc3c2)cc1` [Compound No. 1104, 2-(4-(2-naphtyloxy)benzamide)benzoic Acid]: the values for the inhibition at 1 µM in test [1] (1 μM) and in test [3] were 45.3% and 35.9%, respectively. The results for the inhibition at 3 µM in test [1] and in test [3] were 90.4% and 85.6%, respectively. For the same compound, the inhibition at 10 µM stood at 100% in test [1] (10 μM) and 98.2% in test [3]. Besides, the “Inhibition of antibody production (%) IgE” value in test [2] came out at 60.4%.

Regarding `O=C(Cc1ccc(Oc2ccc3ccccc3c2)cc1)Nc1ccccc1C(=O)O` [Compound No. 1126, 2-(4-(2-naphtyloxy)phenylacetamide)benzoic acid], testing at 3 µM in test [1] gave an inhibition of 26.5%. Moreover, the “Inhibition of antibody production (%) IgE” value in test [2] was 78.9%. Further, in test [3], the inhibition at 1 µM was determined as 63.9%, the inhibition at 3 µM is 93.5% and the inhibition at 10 µM amounted to 97.9%.
